The results in this text go back to paper PMC11960969, “Mdga2 deficiency leads to an aberrant activation of BDNF/TrkB signaling that underlies autism-relevant synaptic and behavioral changes in mice” (PLOS Biology, 2025).

The subject of one test is mice. Nature of the test: Open field test. Format: in vivo, mouse. The procedure:
Six- to eight-week-old male mice were subjected to various behavioral tests. Mice were allowed to acclimatize in the testing room for 1 h prior to each test. Data were recorded and analyzed using Smart 3.0 video tracking system (Panlab, Harvard Apparatus).
Mice were gently placed in the center of an open field apparatus (40 × 40 × 40 cm), and allowed for a 10-min period of free movement. Total distance traveled and time spent in center were analyzed.

For test [1], the system named is cell surface GluA1, GluN1. Briefly: Cell surface biotinylation of GluA1 and GluN1 in hippocampal neurons. The note with it: 10 μM ANA-12, 24 h, 12 DIV. Format: cell-based, mouse. The procedure: ANA-12 was dissolved in saline containing 10% DMSO to a final concentration of 0.5 mg/kg and intraperitoneally administered into male mice. For chronic treatment, ANA-12 was administered to 3-week-old male mice at twice/week for 3 weeks until mice reached 6 weeks of age. For acute treatment, ANA-12 was administered to 4-week-old male mice for three consecutive days. For and cultured neurons, ANA-12 was suspended to a 10 mM concentration in DMSO and diluted 1:1,000 in solution. Final concentration for treatment is 10 µ M with 0.1% DMSO.
Supplementary file pbio.3003047.s005.tif: S5 Fig Pharmacological inhibition of […] improves social behaviors in Mdga2 ^+/− mice. (A, B) The miniature inhibitory postsynaptic currents (mIPSCs) of hippocampal neurons in treated Het mice and their wild-type (WT) littermates were recorded and their kinetics (rise time and decay) were quantified for comparison. n = 14 cells from 3 mice per group. (C, D) The miniature excitatory postsynaptic currents (mEPSCs) of hippocampal neurons in treated mice were recorded and their kinetics (rise time and decay) were quantified for comparison. n = 14 cells from 3 mice per group. (E) Representative traces of evoked NMDAR-mediated EPSCs and quantitative analysis of evoked NMDAR-mediated EPSC amplitude with increasing stimulus intensity. n = 20–23 cells from 3 mice per group. […]

The next test concerns TrkB signaling. Nature of the test: Time course of TrkB signaling inhibition in cerebrum after i.p. ANA-12 (immunoblotting). Format: in vivo, mouse. The note with it: 0.5 mg/kg i.p., WT and Mdga2-/- mice, S4A Fig. The procedure: Equal protein amounts of total lysates from cells or mouse tissues were subjected to SDS-PAGE and immunoblotted with antibodies indicated. For Co-IP, 1 mg of protein lysates were incubated with antibodies indicated and Protein G Agarose (ThermoFisher, Cat# 20399) beads at 4 °C overnight, and immunoprecipitated proteins were then subjected to SDS-PAGE and immunoblotting. Uncropped immunoblotting images are shown in S1 Raw Images.
ANA-12 was dissolved in saline containing 10% DMSO to a final concentration of 0.5 mg/kg and intraperitoneally administered into male mice. For chronic treatment, ANA-12 was administered to 3-week-old male mice at twice/week for 3 weeks until mice reached 6 weeks of age. […]
Supplementary file pbio.3003047.s004.tif: S4 Fig Acute ANA-12 treatment temporarily rescues social deficits in Mdga2 ^+/− mice. […] (C–G) Mice were analyzed for their total travel distance in the open field test (C), their discrimination index in the novel location recognition test (D), their time spent self-grooming and bouts of self-grooming (E), their sniffing time in the social affiliation test (F), and their sociability and social novelty preferences in the three-chamber test (G). n = 15 mice per group. […] P-values were determined by two-way ANOVA with Tukey’s multiple comparisons test. ns: not significant, *p < 0.05, **p < 0.01, ***p < 0.001, ns: not significant. […]
On the technique in general: Immunoblotting shows a protein as a band on a membrane.

Turning to `O=C(Nc1ccccc1C(=O)NC1CCCCNC1=O)c1cc2ccccc2s1` (stereo not shown) [ANA-12, reference compound], the locomotor activity entry in the test on mice (Mdga2+/- mice, chronic 0.5 mg/kg i.p. twice per week 3 weeks, Test 1 Interaction F(1,56) = 0.2753, p = 0.6019, Test 2 F(1,56) = 0.2774, p = 0.6005) was “did not affect the locomotor activity”; with mice (acute: 0.5 mg/kg i.p. once daily 3 days, Test 1 Interaction F(1,56) = 0.3413, p = 0.5614, Test 2 F(1,56) = 0.1904, p = 0.6643), “did not affect locomotor activity”. Besides, the “cell surface distribution of GluA1 in MDGA2-deficient vs WT neurons” value in test [1] is “became comparable between these neurons upon ANA-12 treatment”. In addition, in the test with TrkB signaling, the “time of main TrkB signaling inhibition after treatment” value is 16 to 24 h.
